Test results: EPA's CvTdb concentration-time database

Tests used:
[1] = tested on: Rat; assay: concentration in liver after dosing
[2] = tested on: Rat; assay: concentration in brain after dosing; settings: dosed: Perfluorodecanoic acid, 10 mg/kg, oral
[3] = tested on: Rat; assay: concentration in plasma after dosing
[4] = tested on: Rat; assay: concentration in plasma after dosing; settings: dosed: Perfluorodecanoic acid, 2 mg/kg, iv, Male, F344
[5] = tested on: Rat; assay: concentration in kidney after dosing; settings: dosed: Perfluorodecanoic acid, 10 mg/kg, oral
[6] = tested on: Rat; assay: concentration in plasma after dosing; settings: dosed: Perfluorodecanoic acid, 2 mg/kg, oral, Male, Harlan Sprague Dawley
[7] = tested on: Rat; assay: concentration in plasma after dosing; settings: 0.5 h; dosed: Primidone; 30 mg/kg; oral; Male; F344
[8] = tested on: Rat; assay: concentration in heart after dosing; settings: dosed: Bis 2-Chloroethoxy Methane, 20 mg/kg, iv
[9] = tested on: Rat; assay: concentration in liver after dosing; settings: 10 min; dosed: Bis 2-Chloroethoxy Methane; 20 mg/kg; iv; Female; F344
[10] = tested on: Rat; assay: concentration in thymus after dosing; settings: dosed: Bis 2-Chloroethoxy Methane, 20 mg/kg, iv
[11] = tested on: Rat; assay: concentration in thymus after dosing; settings: 20 min; dosed: Bis 2-Chloroethoxy Methane; 20 mg/kg; iv; Female; F344

O=C(O)C(F)(F)C(F)(F)C(F)(F)C(F)(F)C(F)(F)C(F)(F)C(F)(F)C(F)(F)C(F)(F)F [Perfluorodecanoic acid]
dosed: Perfluorodecanoic acid
Settings | concentration in liver [ng/g] | concentration in plasma [ng/mL]
[1], 1 h, 10 mg/kg, oral, Female, Harlan Sprague Dawley | 43800 | –
[1], 1 h, 10 mg/kg, oral, Male, Harlan Sprague Dawley | 56500 | –
[1], 24 h, 10 mg/kg, oral, Female, Harlan Sprague Dawley | 102000 | –
[1], 24 h, 10 mg/kg, oral, Male, Harlan Sprague Dawley | 107000 | –
[1], 24 h, 10 mg/kg, oral, Male, Harlan Sprague Dawley - this seems too small | 125000 | –
[1], 864 h, 10 mg/kg, oral, Female, Harlan Sprague Dawley | 45900 | –
[1], 864 h, 10 mg/kg, oral, Male, Harlan Sprague Dawley | 56700 | –
[1], 1848 h, 10 mg/kg, oral, Female, Harlan Sprague Dawley | 21200 | –
[1], 1848 h, 10 mg/kg, oral, Male, Harlan Sprague Dawley | 32600 | –
[1], 3360 h, 10 mg/kg, oral, Female, Harlan Sprague Dawley | 7920 | –
[1], 3360 h, 10 mg/kg, oral, Male, Harlan Sprague Dawley | 9980 | –
[3], 0.5 h, 2 mg/kg, oral, Male, Harlan Sprague Dawley | – | 1650
[3], 1 h, 2 mg/kg, iv, Male, F344 | – | 5650
[3], 1 h, 2 mg/kg, oral, Male, Harlan Sprague Dawley | – | 3170
[3], 2 h, 2 mg/kg, oral, Male, Harlan Sprague Dawley | – | 3960
[3], 5 min, 2 mg/kg, iv, Female, Harlan Sprague-Dawley | – | 7650
[3], 5 min, 2 mg/kg, iv, Male, F344 | – | 7380
[3], 6 h, 2 mg/kg, iv, Male, F344 | – | 5650
[3], 12 h, 2 mg/kg, iv, Female, Harlan Sprague-Dawley | – | 5320
[3], 12 h, 2 mg/kg, iv, Male, F344 | – | 6200
[3], 12 h, 2 mg/kg, oral, Male, Harlan Sprague Dawley | – | 7680
[3], 24 h, 2 mg/kg, iv, Male, F344 | – | 4850
[3], 24 h, 2 mg/kg, oral, Male, Harlan Sprague Dawley | – | 6970
[3], 192 h, 2 mg/kg, iv, Female, Harlan Sprague-Dawley | – | 5740
[3], 192 h, 2 mg/kg, iv, Male, F344 | – | 2770
[3], 192 h, 2 mg/kg, oral, Male, Harlan Sprague Dawley | – | 4850
[3], 528 h, 2 mg/kg, iv, Male, F344 | – | 2240
[3], 528 h, 2 mg/kg, oral, Male, Harlan Sprague Dawley | – | 2640
[3], 864 h, 2 mg/kg, iv, Male, F344 | – | 1230
[3], 1200 h, 2 mg/kg, iv, Female, Harlan Sprague-Dawley | – | 2250
[3], 1200 h, 2 mg/kg, iv, Male, F344 | – | 719
[3], 1200 h, 2 mg/kg, oral, Male, Harlan Sprague Dawley | – | 1700
[3], 1848 h, 2 mg/kg, iv, Male, F344 | – | 437
[3], 1848 h, 2 mg/kg, oral, Male, Harlan Sprague Dawley | – | 907
[3], 2520 h, 2 mg/kg, iv, Male, F344 | – | 124
[3], 2520 h, 2 mg/kg, oral, Male, Harlan Sprague Dawley | – | 687
[3], 3360 h, 2 mg/kg, iv, Male, F344 | – | 277
[3], 3360 h, 2 mg/kg, oral, Male, Harlan Sprague Dawley | – | 498

Settings | concentration in brain, [2] [ng/g] | concentration in kidney, [5] [ng/g]
1 h, Female, Harlan Sprague Dawley | 581 | 18100
1 h, Male, Harlan Sprague Dawley | – | 12400
24 h, Female, Harlan Sprague Dawley | 2750 | 46800
24 h, Male, Harlan Sprague Dawley | 2360 | 24600
24 h, Male, Harlan Sprague Dawley - this seems too small | 2580 | 29500
864 h, Female, Harlan Sprague Dawley | 926 | 18300
864 h, Male, Harlan Sprague Dawley | 1240 | 11100
1848 h, Female, Harlan Sprague Dawley | 526 | 5210
1848 h, Male, Harlan Sprague Dawley | 602 | 4000
3360 h, Female, Harlan Sprague Dawley | – | 2740
3360 h, Male, Harlan Sprague Dawley | – | 1530

concentration in plasma [ng/mL]
Settings | 2 h | 24 h | 528 h | 1848 h | 3360 h
[4] | – | 5580 | – | 884 | –
[6] | 4900 | – | 2050 | – | 516

CCC1(c2ccccc2)C(=O)NC(=O)NC1=O [Phenobarbital]
Settings | concentration in plasma [ng/mL]
[7] | 330

concentration in plasma [ng/mL], [3], dosed: Primidone, oral
Settings | 0.25 h | 0.5 h | 1.5 h | 3 h | 6 h | 9 h | 12 h | 18 h | 22 h | 30 h
30 mg/kg, Female, F344 | – | – | 410 | 540 | 1060 | 900 | 1110 | 860 | 930 | –
30 mg/kg, Male, F344 | 300 | 330 | 2030 | 2980 | 3510 | 2720 | 2430 | 1660 | 1060 | –
80 mg/kg, Female, F344 | – | – | 630 | 1100 | 1960 | 2190 | 1980 | 1960 | 1500 | –
80 mg/kg, Female, Harlan Sprague-Dawley | 340 | 930 | – | – | – | – | 5660 | – | – | –
80 mg/kg, Male, F344 | – | – | 3330 | 3620 | 6530 | 7430 | – | 4020 | 2870 | –
130 mg/kg, Female, F344 | – | 960 | 870 | 4500 | 9670 | 3050 | 9030 | – | 2040 | 1920
130 mg/kg, Female, Harlan Sprague-Dawley | – | – | 4090 | – | – | – | – | – | – | –
130 mg/kg, Male, F344 | – | – | 4150 | – | 7700 | 9610 | – | – | 4120 | 2260
130 mg/kg, Male, Harlan Sprague Dawley | – | – | – | 840 | – | – | 2490 | – | – | –

ClCCOCOCCCl [Bis 2-Chloroethoxy Methane]
Settings | concentration in heart, [8] [ng/g] | concentration in thymus, [10] [ng/g]
1 h, Female, F344 | 1530 | 2600
1 h, Male, F344 | 1400 | 3100
2 h, Female, F344 | 338 | 712
2 h, Male, F344 | 466 | 783
3 h, Female, F344 | 123 | 199
3 h, Male, F344 | 179 | 305
4 h, Female, F344 | 53.5 | 52.4
4 h, Male, F344 | 57.5 | 72.9
5 h, Female, F344 | 38.7 | 62.4
5 h, Male, F344 | 47.8 | 77.9
6 h, Female, F344 | 31.7 | 48.8
6 h, Male, F344 | 31.5 | 29.6
7 h, Female, F344 | – | 26.6
7 h, Male, F344 | 21.1 | 36
8 h, Female, F344 | – | 16.4
8 h, Female, Harlan Sprague-Dawley | 13.3 | 18.1
10 min, Female, F344 | 11300 | 33300
10 min, Male, F344 | 12200 | 66700
20 min, Female, F344 | 6050 | 22300
20 min, Male, F344 | 6780 | 13900
40 min, Female, F344 | 4450 | 12400
40 min, Male, F344 | 7060 | 7360

dosed: Bis 2-Chloroethoxy Methane, iv
Settings | concentration in liver, [1] [ng/g] | concentration in plasma, [3] [ng/mL]
1 h, 20 mg/kg, Female, F344 | 526 | 1380
1 h, 20 mg/kg, Male, F344 | 1620 | 1400
1 h, 40 mg/kg, Male, Harlan Sprague Dawley | – | 3850
2 h, 20 mg/kg, Female, F344 | 65.2 | 202
2 h, 20 mg/kg, Male, F344 | 640 | 336
2 h, 40 mg/kg, Male, Harlan Sprague Dawley | – | 648
3 h, 20 mg/kg, Female, F344 | – | 82.8
3 h, 20 mg/kg, Male, F344 | 121 | 119
3 h, 40 mg/kg, Male, Harlan Sprague Dawley | – | 333
4 h, 20 mg/kg, Female, F344 | – | 79
4 h, 20 mg/kg, Male, F344 | 66.5 | 117
4 h, 40 mg/kg, Male, Harlan Sprague Dawley | – | 139
5 h, 20 mg/kg, Female, F344 | – | 25.4
5 h, 20 mg/kg, Male, F344 | 31.1 | 32.6
5.333 h, 40 mg/kg, Male, Harlan Sprague Dawley | – | 74.6
6 h, 20 mg/kg, Female, F344 | – | 10.2
6 h, 20 mg/kg, Male, F344 | 26.2 | 28
6.667 h, 40 mg/kg, Male, Harlan Sprague Dawley | – | 45.9
7 h, 20 mg/kg, Male, F344 | – | 16
8 h, 20 mg/kg, Female, Harlan Sprague-Dawley | – | 11.2
8 h, 40 mg/kg, Male, Harlan Sprague Dawley | – | 15.7
10 min, 20 mg/kg, Female, F344 | 1570 | 9580
10 min, 20 mg/kg, Male, F344 | 3090 | 10400
10 min, 40 mg/kg, Male, Harlan Sprague Dawley | – | 23400
20 min, 20 mg/kg, Female, F344 | 2310 | 5400
20 min, 20 mg/kg, Male, F344 | 2860 | 4840
20 min, 40 mg/kg, Male, Harlan Sprague Dawley | – | 10200
40 min, 20 mg/kg, Female, F344 | 662 | 2110
40 min, 20 mg/kg, Male, F344 | 4290 | 2640
40 min, 40 mg/kg, Male, Harlan Sprague Dawley | – | 7610

Settings | concentration in liver [ng/g] | concentration in thymus [ng/g]
[9] | 2550 | –
[11] | – | 16300
